Patent publication US10570184B2, “GLP-1/glucagon receptor co-agonists for medical use” (Novo Nordisk A/S, priority 2014, dated 2020)
Starred links: 1 amine or outer side, 2 acyl side, 3 side chain; linkers in the order of their positions; H or OH if unused. Non-standard residues stand in square brackets, D forms with d. Residues, ends and D or L forms follow the SMILES beside them. Groups on a side chain read outwards from the residue. *: point of attachment. C18 diacid = O=C(O)CCCCCCCCCCCCCCCCC(=O)*; γGlu = O=C(O)[C@H](CCC(=O)[*:2])N[*:1]; Ac4c = NC1(C(=O)O)CCC1; AEEA = NCCOCCOCC(=O)O

Key:
human glucagon receptor = biological target: T1, human glucagon receptor (Homo sapiens, UniProt P47871); assay: Assay (I)(b) glucagon receptor activation, CRE luciferase reporter gene assay in BHK cells; assay type: cell-based; conditions: without presence of serum albumin; read-out: GlucagonR EC50 (pM), [Assay (I)(b)]
T1 construct: expressed in transfected cells; host or cells: membranes of BHK cells, clone BHK hGCGR A3*25

[1] = Assay (III) ThT fibrillation assay for physical stability; assay type: physicochemical; conditions: 250 μM in 10 mM HEPES buffer, 37° C., shaking 960 rpm
Outline: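 Glucagon derivative at 250 μM in 10 mM HEPES pH 7.5 with 1 μM ThT was incubated at 37 °C under 960 rpm orbital shaking. Fluorescence (ex 444/em 485 nm) was read every 20 min and fitted for lag time (t0−2τ) and kapp (1/τ). Recovery was soluble peptide after centrifugation/filtration, by RP-HPLC, as percent of initial.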

T1 sequence (P47871 26-477): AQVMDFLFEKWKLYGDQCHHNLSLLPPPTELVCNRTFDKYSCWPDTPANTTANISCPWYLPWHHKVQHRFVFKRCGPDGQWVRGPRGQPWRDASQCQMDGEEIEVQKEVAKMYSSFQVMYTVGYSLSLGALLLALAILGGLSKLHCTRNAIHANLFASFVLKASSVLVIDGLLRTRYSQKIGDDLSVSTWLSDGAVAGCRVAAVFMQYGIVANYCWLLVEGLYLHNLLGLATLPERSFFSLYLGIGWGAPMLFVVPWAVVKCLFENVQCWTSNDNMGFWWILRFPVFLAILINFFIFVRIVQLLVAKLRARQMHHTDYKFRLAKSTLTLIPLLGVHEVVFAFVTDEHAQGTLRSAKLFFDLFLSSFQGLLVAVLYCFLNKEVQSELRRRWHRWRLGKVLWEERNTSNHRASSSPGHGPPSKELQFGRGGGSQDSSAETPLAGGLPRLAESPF

- EC50 (human glucagon receptor): 12 pM
- ThT Assay Lag time (h) [Assay (III), pH 7.5] [1]: 45.0 h
SMILES: CC[C@H](C)[C@H](NC(=O)[C@H](CC(C)C)NC(=O)[C@H](Cc1c[nH]c2ccccc12)NC(=O)[C@H](CCC(N)=O)NC(=O)[C@@H](NC(=O)[C@H](Cc1ccccc1)NC(=O)[C@H](CCC(=O)O)NC(=O)[C@H](CCC(N)=O)NC(=O)[C@H](C)NC(=O)[C@H](CCCNC(=N)N)NC(=O)[C@H](CCCNC(=N)N)NC(=O)[C@H](CO)NC(=O)[C@H](CCC(=O)O)NC(=O)[C@H](CC(C)C)NC(=O)[C@H](Cc1ccc(O)cc1)NC(=O)[C@H](CCCCN)NC(=O)[C@H](CO)NC(=O)[C@H](CC(C)C)NC(=O)[C@H](CC(=O)O)NC(=O)[C@H](CO)NC(=O)[C@@H](NC(=O)[C@H](Cc1ccccc1)NC(=O)[C@@H](NC(=O)CNC(=O)[C@H](CCC(N)=O)NC(=O)C1(NC(=O)[C@@H](N)Cc2c[nH]cn2)CCC1)[C@@H](C)O)[C@@H](C)O)C(C)C)C(=O)N[C@@H](CCCCNC(=O)CC[C@H](NC(=O)COCCOCCNC(=O)COCCOCCNC(=O)CC[C@H](NC(=O)CC[C@H](NC(=O)CCCCCCCCCCCCCCCCC(=O)O)C(=O)O)C(=O)O)C(=O)O)C(=O)N[C@H](C(N)=O)[C@@H](C)O [Chem. 38, N^ε28-[(4S)-4-carboxy-4-[[2-[2-[2-[[2-[2-[2-[[(4S)-4-carboxy-4-[[(4S)-4-carboxy-4-(17-carboxyheptadecanoylamino)butanoyl]amino]butanoyl]amino]ethoxy]ethoxy]acetyl]amino]ethoxy]ethoxy]acetyl]amino]butanoyl]-[Acb2,Leu10,Glu15,Glu21,Ile27,Lys28]-Glucagon amide] (H-H[Ac4c]QGTFTSDLSKYLESRRAQEFVQWLIK([γGlu-AEEA-AEEA-γGlu-γGlu-C18 diacid])T-NH2; N-terminus assumed)
